The test system of the test is murine neural precursor cells (neurosphere cultures). Kind of test: HTS of LOPAC library against secondary neurosphere cultures, MTT proliferation assay at 3 μM, day 7 (z score, P value). Format: cell-based, mouse.
The mark [1] stands for this setting: LOPAC screen, neurosphere MTT proliferation, 3 μM, day 7.
Where [2] appears, read: yes/no: significantly inhibited neurosphere proliferation (P<0.01) in primary screen.
The mark [3] stands for this setting: LOPAC library screen at 3 μM, secondary neurosphere cultures, MTT.
The mark [4] stands for this setting: LOPAC primary screen, neurosphere MTT proliferation, 3 μM, day 7.
[5] abbreviates: yes/no: significantly inhibited neurosphere proliferation in primary screen.
The mark [6] stands for this setting: LOPAC library screen, 3 μM, MTT, neurosphere cultures.
[7] abbreviates: primary LOPAC screen, 3 μM, MTT, neurosphere proliferation.
Where [8] appears, read: yes/no: significantly inhibited neurosphere proliferation in the primary screen.
[9] abbreviates: yes/no: significantly inhibited neurosphere proliferation (P<0.01) in the primary screen.
Where [10] appears, read: LOPAC library screen at 3 μM, MTT, secondary neurosphere cultures, screened in singlets.
The mark [11] stands for this setting: LOPAC library screen, 3 μM, MTT, secondary neurosphere cultures, day 7.
Setting [12] is: yes = significantly inhibited neurosphere proliferation (P<0.01) in the primary screen.

Structures can show the parent of a compound that is named as a salt. Where two headings read alike, the source gives them in different places.

With `CC(COc1ccccc1)N(CCCl)Cc1ccccc1` (stereo not drawn) [Phenoxybenzamine hydrochloride], the “Z Score” value was −1.512. The same molecule yielded a Z score under setting [1] of −1.512. The Activity result under setting [2] is recorded as “no”.
`C[N+](C)(C)CC#CCOC(=O)Nc1cccc(Cl)c1.[Cl-]` [McN-A-343]: the “Z Score” value was −0.08897. This molecule had a Z score under setting [1] of −0.089. Moreover, the Activity entry under setting [2] is “no”.
Regarding `N[C@H](CO)C(=O)O` [D-Serine], the “Z Score” value under setting [3] is given as −0.1429. Also, the Z score under setting [4] is given as −0.143. The Activity result under setting [5] is given as “no”.
Take `CCOC(=O)C1=C[C@]2(CC)CCCN3CCc4c(n1c1ccccc41)[C@@H]32` [Vinpocetine]: the “Z Score” value under setting [6] turned out to be 0.4329. For the same molecule, the Z score under setting [7] turned out to be 0.433. Under setting [8], the Activity result is “no”.
Regarding `NNc1nncc2ccccc12` [Hydralazine hydrochloride], under setting [6], the “Z Score” value worked out at 0.2592. Besides, the Z score under setting [4] worked out at 0.259. The Activity result under setting [2] is “no”.
Consider `NC(N)=Nc1nc(CSCCC(N)=NS(N)(=O)=O)cs1` [Famotidine], for which the Activity entry was “no”. The “Z Score” value under setting [6] is listed as 0.05489. Under setting [4], this molecule displayed a Z score of 0.055.
On to `N[C@@H](Cc1ccc(O)c(O)c1)C(=O)O` [L-3,4-Dihydroxyphenylalanine], for which, under “168 h, 3 µM”, the “Z Score” value was 2.44 and the Z score is reported as 2.440. Under setting [2], the Activity entry is on record as “no”.
For the molecule `CC(C)C(=O)c1c(C(C)C)nn2ccccc12` [Ibudilast], the “Z Score” value under setting [6] is 0.3787. Under setting [4], this molecule came in with a Z score of 0.379.
In the case of `CN1CCN(CCCN2c3ccccc3Sc3ccc(Cl)cc32)CC1` [Prochlorperazine dimaleate], for the setting “168 h, 3 µM”, the “Z Score” value is −0.8602 and the Z score is reported as −0.860. Moreover, under setting [9], the Activity entry is “no”.
Take `Oc1ncnc2[nH]ncc12` [Allopurinol]: under setting [6], the “Z Score” value turned out to be 0.1473. For the same molecule, under setting [7], the Z score amounted to 0.147. Also, the Activity result under setting [8] was “no”.
Consider `CC(=O)O[C@H]1C[C@@]2(C)[C@@H](C[C@@H](O)[C@H]3[C@@]4(C)CC[C@@H](O)[C@@H](C)[C@@H]4CC[C@@]32C)/C1=C(\CCC=C(C)C)C(=O)O` [Fusidic acid sodium], for which, under setting [10], the “Z Score” value was determined as 2.045. The molecule also registered a Z score under setting [4] of 2.045. Further, the Activity entry under setting [2] was “no”.
For the molecule `COc1cc2nc(N3CCN(C(=O)C4COc5ccccc5O4)CC3)nc(N)c2cc1OC` (stereo not drawn) [Doxazosin mesylate], under setting [11], the “Z Score” value is on record as −1.861. Further, under setting [1], the Z score was −1.861. Under setting [2], the Activity entry was “no”.
With `Cc1cc(N)c2ccccc2[n+]1CCCCCCCCCCCCCC[n+]1c(C)cc(N)c2ccccc21` [Dequalinium analog, C-14 linker], the “Z Score” value under setting [11] is reported as −11.27. Besides, under setting [4], the Z score is −11.274. Under setting [9], the Activity result is given as “yes”.
In the case of (−)-Eseroline fumarate, the “Z Score” value stood at 0.6339. Under setting [4], this molecule returned a Z score of 0.634. In addition, the Activity entry under setting [2] was “no”.
Consider `COc1ccccc1N1CCN(CCCNc2c(C)c(=O)n(C)c(=O)n2C)CC1` [Urapidil, 5-Methyl-], for which the “Z Score” value under setting [3] is recorded as −0.7831. This molecule returned a Z score under setting [7] of −0.783. For the same molecule, the Activity result under setting [8] is reported as “no”.
As for `Cl.O=C(CCCN1CCC2(CC1)C(=O)N(CCc1ccc(N=C=S)cc1)CN2c1ccccc1)c1ccc(F)cc1`, under setting [3], the “Z Score” value is listed as −0.4152. Further, under setting [4], the Z score is −0.415. Under setting [12], the Activity entry is reported as “no”.
As for `C[N+]1(C)[C@@H]2C[C@@H](OC(=O)[C@H](CO)c3ccccc3)C[C@H]1[C@@H]1O[C@@H]12.[Br-]` [(−)-Scopolamine methyl bromide], the “Z Score” value is −0.8468. The molecule further returned a Z score under setting [4] of −0.847. The Activity result under setting [5] is reported as “no”.
Consider `CCN1CCc2nc(N)oc2CC1.Cl.Cl` [B-HT 933 dihydrochloride], for which the “Z Score” value was −1.28. The molecule also came in with a Z score under setting [1] of −1.280. The Activity result under setting [2] is recorded as “no”.
As to `CC(=O)[C@H]1CC[C@H]2[C@@H]3CC[C@H]4C[C@H](O)CC[C@]4(C)[C@H]3C(=O)C[C@]12C` [5alpha-Pregnan-3alpha-ol-11,20-dione], the “Z Score” value is listed as −0.8078. This molecule displayed a Z score under setting [4] of −0.808.
As to `CN1CCC[C@@H]1CCO[C@](C)(c1ccccc1)c1ccc(Cl)cc1` [Clemastine fumarate], under “168 h, 3 µM”, the “Z Score” value is −2.023 and the Z score is −2.023.
Consider `CC[N+](CC)(CC)CCOc1ccc(/C=C/c2ccccc2)cc1` [MG 624], for which, for the setting “168 h, 3 µM”, the “Z Score” value is reported as −10.66 and the Z score is given as −10.660. In addition, the Activity entry under setting [9] is reported as “yes”.
On to R-(−)-Desmethyldeprenyl hydrochloride, for which the “Z Score” value is reported as −0.5056. The molecule further yielded a Z score under setting [1] of −0.506. Moreover, under setting [2], the Activity result is “no”.
As to `N#C/C(=C\c1ccc(O)c(O)c1)C(=O)c1ccc(O)c(O)c1` [Tyrphostin AG 538], the “Z Score” value was −0.3955. Moreover, the Z score under setting [7] is listed as −0.395. Besides, the Activity entry under setting [8] was “no”.
`CN(C)CCOC(C)(c1ccccc1)c1ccccn1` (stereo not drawn) [Doxylamine succinate]: the “Z Score” value under setting [10] was 1.736. Besides, the Z score under setting [1] was found to be 1.736. Under setting [2], the Activity result is listed as “no”.
Consider `N[C@H](CCC(=O)NCS(=O)(=O)O)C(=O)O` [gamma-D-Glutamylaminomethylsulfonic acid], for which, under setting [6], the “Z Score” value is listed as −0.04649. The molecule further came in with a Z score under setting [4] of −0.046. The Activity entry under setting [2] was “no”.
`COc1ccccc1N1CCN(CCN(C(=O)c2ccc(F)cc2)c2ccccn2)CC1.Cl.Cl` [p-MPPF dihyrochloride] had a Z score under setting [4] of −2.160. Also, under setting [12], the Activity entry was “no”.
For `COC1=C(OC)C(=O)c2ccccc2C1=O` [2,3-Dimethoxy-1,4-naphthoquinone], the “Z Score” value is reported as −10.4. This molecule gave a Z score under setting [4] of −10.398. Further, under setting [9], the Activity entry is on record as “yes”.
As for `Oc1ccccc1O` [Pyrocatechol], the “Z Score” value is −2.053. Further, the Z score under setting [1] is −2.053. Also, the Activity result under setting [2] was “no”.
Consider `O=C1N(c2ccccc2)c2ccccc2C1(Cc1ccncc1)Cc1ccncc1` [Linopirdine], for which, under setting [3], the “Z Score” value was −0.5525. In addition, the Z score under setting [4] is given as −0.553. Moreover, under setting [12], the Activity result is “no”.
On to `C[C@@H](NC(=O)/C(C#N)=C/c1ccc(O)c(O)c1)c1ccccc1` [Tyrphostin AG 527], for which the “Z Score” value under setting [11] is −1.607. For the same molecule, the Z score under setting [7] is −1.607. In addition, the Activity entry under setting [8] was “no”.
As to `Br.Br.N=C(N)SCCc1ccc(CCSC(=N)N)cc1` [1,4-PBIT dihydrobromide], the “Z Score” value was −1.179. The Z score under setting [4] is listed as −1.179. Besides, the Activity result under setting [5] was “no”.
In the case of `CC(=O)N[C@@H](CS)C(=O)O` [N-Acetyl-L-Cysteine], the “Z Score” value under setting [11] is recorded as −1.621. Moreover, the Z score under setting [7] is given as −1.621. Further, the Activity entry under setting [8] is reported as “no”.
For the molecule `NC[C@H](O)c1ccc(O)c(O)c1.O=C(O)C(O)C(O)C(=O)O` [(B1)-Norepinephrine (+)bitartrate], the “Z Score” value was 0.09903.
Turning to `CCCCC1(C2CCCC2)Cc2cc(OCC(=O)O)c(Cl)c(Cl)c2C1=O` (stereo in doubt) [R(+)-Butylindazone], the “Z Score” value is 0.02924. Under setting [1], this molecule returned a Z score of 0.029. Besides, the Activity result under setting [2] is recorded as “no”.
